Drawing on patent US20260207602A1, “EGFR INHIBITORS” (Blueprint Medicines Corporation, priority 2022, published 2026), this text covers IC50 for 26 molecules.

One assay deals with T1, EGFR (d746-750) (Homo sapiens, UniProt P00533, DEL746-750).
T1 construct: purchased SignalChem E10-122JG
Briefly: Biochemical EGFR inhibition assay (Caliper mobility shift), EGFR (d746-750). Conditions: biochemical Caliper mobility shift assay, EGFR Exon 19-del enzyme; read-out: Enz EGFR Exon 19-del IC50. An outline of the steps: (§1)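 Peptide phosphorylation by the mutant enzyme is followed at 25 °C with either 1.0 mM ATP or ATP at Km, in HEPES pH 7.5 containing 0.015% Brij-35 and 1.0% DMSO. After 10–20% substrate turnover, 35 mM EDTA ends the reaction and mobility shift quantifies product.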

The target in the next assay is T2, EGFR L858R (Homo sapiens, UniProt P00533, L858R).
T2 construct: purchased SignalChem E10-122BG
The assay is described as follows: Biochemical EGFR inhibition assay (Caliper mobility shift), EGFR L858R. The following applies: biochemical Caliper mobility shift assay, EGFR L858R enzyme; read-out: Enz EGFR L858R IC50. An outline of the steps: as §1

Assay [1] has as its target intracellular phosphorylation of EGFR (Tyr1068) in PC-9 cells (Homo sapiens, UniProt P00533, DEL746-750). Briefly: PC-9 pEGFR AlphaLISA assay. The format is cell-based. The following applies: 4 hours incubation, read-out: Phos EGFR PC9 IC50. A digest of the protocol: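 PC-9 cells (EGFR del746-750) in phenol-free DMEM/10% FBS, adhered overnight, then exposed to 10-point 4-fold compound dilutions for 4 h at 37 °C. Lysates assayed for pEGFR Tyr1068 by AlphaLISA SureFire Ultra; IC50 from percent pEGFR inhibition vs log concentration.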

Where only a bound is given, the exact number is not on record here.

T1 sequence (P00533 with tags, fused parts or gaps DEL746-750 limits assumed): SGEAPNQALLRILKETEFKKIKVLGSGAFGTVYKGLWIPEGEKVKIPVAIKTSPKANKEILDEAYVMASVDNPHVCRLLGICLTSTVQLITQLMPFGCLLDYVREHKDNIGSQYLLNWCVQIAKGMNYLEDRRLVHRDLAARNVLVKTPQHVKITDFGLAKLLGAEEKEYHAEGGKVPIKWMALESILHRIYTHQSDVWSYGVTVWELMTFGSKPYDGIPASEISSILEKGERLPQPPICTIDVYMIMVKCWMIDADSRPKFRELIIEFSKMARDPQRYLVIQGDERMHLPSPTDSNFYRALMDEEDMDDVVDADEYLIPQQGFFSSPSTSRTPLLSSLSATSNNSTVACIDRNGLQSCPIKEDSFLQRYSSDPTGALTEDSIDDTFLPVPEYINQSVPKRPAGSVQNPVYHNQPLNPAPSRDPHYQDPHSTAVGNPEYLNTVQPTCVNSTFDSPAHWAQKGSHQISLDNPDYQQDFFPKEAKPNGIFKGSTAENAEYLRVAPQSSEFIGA
T2 sequence (P00533 25-1210 L858R): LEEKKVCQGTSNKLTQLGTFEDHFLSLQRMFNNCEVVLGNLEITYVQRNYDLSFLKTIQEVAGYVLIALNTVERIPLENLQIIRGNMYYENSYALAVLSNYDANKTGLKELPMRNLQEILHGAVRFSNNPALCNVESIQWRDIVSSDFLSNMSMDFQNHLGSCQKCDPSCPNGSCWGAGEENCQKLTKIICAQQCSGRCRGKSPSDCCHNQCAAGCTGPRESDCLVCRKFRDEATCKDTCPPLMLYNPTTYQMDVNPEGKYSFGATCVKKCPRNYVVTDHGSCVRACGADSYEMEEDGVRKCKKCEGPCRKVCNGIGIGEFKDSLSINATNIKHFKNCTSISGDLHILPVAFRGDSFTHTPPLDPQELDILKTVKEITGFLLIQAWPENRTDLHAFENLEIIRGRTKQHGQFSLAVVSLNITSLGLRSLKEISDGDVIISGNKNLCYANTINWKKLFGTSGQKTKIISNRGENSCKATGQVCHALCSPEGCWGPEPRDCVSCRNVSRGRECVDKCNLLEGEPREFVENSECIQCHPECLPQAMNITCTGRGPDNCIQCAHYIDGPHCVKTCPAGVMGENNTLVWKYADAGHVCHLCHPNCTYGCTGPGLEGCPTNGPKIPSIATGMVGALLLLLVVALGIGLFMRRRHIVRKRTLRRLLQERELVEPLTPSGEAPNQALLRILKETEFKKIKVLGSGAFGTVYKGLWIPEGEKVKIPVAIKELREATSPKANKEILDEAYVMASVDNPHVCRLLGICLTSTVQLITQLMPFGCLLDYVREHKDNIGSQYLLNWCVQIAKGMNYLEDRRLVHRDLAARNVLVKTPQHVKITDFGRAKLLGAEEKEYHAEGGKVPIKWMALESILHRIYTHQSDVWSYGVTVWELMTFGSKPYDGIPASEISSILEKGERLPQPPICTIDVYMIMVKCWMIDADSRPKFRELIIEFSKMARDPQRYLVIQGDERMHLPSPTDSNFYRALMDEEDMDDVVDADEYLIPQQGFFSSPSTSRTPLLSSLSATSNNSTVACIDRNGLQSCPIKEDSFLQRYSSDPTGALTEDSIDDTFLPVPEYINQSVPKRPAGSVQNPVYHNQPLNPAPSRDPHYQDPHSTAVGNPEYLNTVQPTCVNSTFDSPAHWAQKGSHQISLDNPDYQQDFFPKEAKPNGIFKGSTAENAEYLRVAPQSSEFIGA
Sequence of intracellular phosphorylation of EGFR (Tyr1068) in PC-9 cells (P00533 with tags, fused parts or gaps DEL746-750): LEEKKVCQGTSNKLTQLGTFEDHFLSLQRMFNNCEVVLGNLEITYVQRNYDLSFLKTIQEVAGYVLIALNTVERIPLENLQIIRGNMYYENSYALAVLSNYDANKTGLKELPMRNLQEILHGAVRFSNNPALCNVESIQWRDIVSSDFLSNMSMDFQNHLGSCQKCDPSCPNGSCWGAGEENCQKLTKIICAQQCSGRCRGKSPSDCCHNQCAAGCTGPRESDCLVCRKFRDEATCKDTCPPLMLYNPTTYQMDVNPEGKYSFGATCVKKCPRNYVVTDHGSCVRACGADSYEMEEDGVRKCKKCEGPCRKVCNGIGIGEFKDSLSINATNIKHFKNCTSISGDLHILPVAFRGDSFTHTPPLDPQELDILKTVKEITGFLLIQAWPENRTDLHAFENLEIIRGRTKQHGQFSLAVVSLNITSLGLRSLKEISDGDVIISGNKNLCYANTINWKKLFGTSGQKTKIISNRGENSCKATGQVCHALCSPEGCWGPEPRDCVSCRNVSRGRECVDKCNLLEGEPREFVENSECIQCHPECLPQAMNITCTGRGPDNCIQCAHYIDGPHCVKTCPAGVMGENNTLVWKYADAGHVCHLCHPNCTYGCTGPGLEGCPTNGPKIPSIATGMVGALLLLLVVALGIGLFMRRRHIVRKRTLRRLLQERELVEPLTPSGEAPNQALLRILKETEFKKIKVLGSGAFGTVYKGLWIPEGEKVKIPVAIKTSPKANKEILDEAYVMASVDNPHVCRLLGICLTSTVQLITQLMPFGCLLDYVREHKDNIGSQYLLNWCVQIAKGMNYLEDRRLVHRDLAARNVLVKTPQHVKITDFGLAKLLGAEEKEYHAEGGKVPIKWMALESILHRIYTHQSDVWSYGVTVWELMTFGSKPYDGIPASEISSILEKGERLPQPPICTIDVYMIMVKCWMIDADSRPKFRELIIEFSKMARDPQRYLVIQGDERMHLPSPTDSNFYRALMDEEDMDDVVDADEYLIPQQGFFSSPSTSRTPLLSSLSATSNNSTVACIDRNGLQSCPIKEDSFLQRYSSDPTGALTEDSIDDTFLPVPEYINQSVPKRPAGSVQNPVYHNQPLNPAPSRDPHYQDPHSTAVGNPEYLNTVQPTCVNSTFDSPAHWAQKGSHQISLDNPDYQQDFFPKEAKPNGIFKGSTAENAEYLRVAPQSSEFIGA

Take `C[C@@H](Oc1cc(N2CCN(C)[C@@H]3C[C@@H]32)cc2ncnc(Nc3ccc4ncsc4c3)c12)C1COC1` (single isomer, unassigned) [Example 299]: the IC50 on EGFR (d746-750) was at most 10 nM; at EGFR L858R it was 10.1 to 50 nM; in assay [1] it was 10.1 to 50 nM.
As to `COc1nn(C)cc1-c1cc(O[C@@H]2CCNC[C@@H]2F)c2c(Nc3ccc4ncsc4c3)ncnc2c1` [Example 363, N-(5-(((3S,4R)-3-fluoropiperidin-4-yl)oxy)-7-(3-methoxy-1-methyl-1H-pyrazol-4-yl)quinazolin-4-yl)benzo[d]thiazol-6-amine], the half-maximal inhibitory concentration (IC50) (at EGFR (d746-750); on EGFR L858R; in assay [1]) was at most 10 nM in each case.
In the case of `CCN1CC[C@H](Oc2cc(-c3cnn(C)c3)cc3ncnc(Nc4ccc5ncsc5c4)c23)C1=O` (single isomer, unassigned) [Example 59, (S)-3-((4-(benzo[d]thiazol-6-ylamino)-7-(1-methyl-1H-pyrazol-4-yl)quinazolin-5-yl)oxy)-1-ethylpyrrolidin-2-one or (R)-3-((4-(benzo[d]thiazol-6-ylamino)-7-(1-methyl-1H-pyrazol-4-yl)quinazolin-5-yl)oxy)-1-ethylpyrrolidin-2-one], the IC50 (at EGFR (d746-750); at EGFR L858R; in assay [1]) was at most 10 nM throughout.
`C[C@@H](Oc1cc(-c2cn(C)n(C(F)F)c2=O)cc2ncnc(Nc3ccc4ncsc4c3)c12)C1COC1` (single isomer, unassigned) [Example 175]: the IC50 is at most 10 nM on EGFR (d746-750), at most 10 nM at EGFR L858R and 10.1 to 50 nM in assay [1].
Turning to `CN1CC[C@H](Oc2cc(-c3cnn(C)c3)cc3ncnc(Nc4ccc5ncsc5c4)c23)C1=O` (single isomer, unassigned) [Example 24], the half-inhibitory concentration (IC50) is at most 10 nM at EGFR (d746-750), at most 10 nM on EGFR L858R and 10.1 to 50 nM in assay [1].
For `Cn1cc(-c2cc(OCCO)c3c(Nc4ccc5ncsc5c4)ncnc3c2)cn1` [Example 30, 2-((4-(benzo[d]thiazol-6-ylamino)-7-(1-methyl-1H-pyrazol-4-yl)quinazolin-5-yl)oxy)ethan-1-ol], the half-inhibitory concentration (IC50) is at most 10 nM at EGFR (d746-750), at most 10 nM on EGFR L858R and 10.1 to 50 nM in assay [1].
As to `CN1CCC(C)(COc2cc(-c3cnn(C)c3)cc3ncnc(Nc4ccc5ncsc5c4)c23)C1=O` (stereo not drawn) [Example 54, 3-(((4-(benzo[d]thiazol-6-ylamino)-7-(1-methyl-1H-pyrazol-4-yl)quinazolin-5-yl)oxy)methyl)-1,3-dimethylpyrrolidin-2-one], the half-maximal inhibitory concentration (IC50) was at most 10 nM on EGFR (d746-750), at most 10 nM at EGFR L858R and 10.1 to 50 nM in assay [1].
In the case of `COc1cc2ncnc(Nc3ccc4ncsc4c3F)c2cc1-c1cnn(C2CCN(C)CC2)c1` [Example 240, 7-fluoro-N-(7-methoxy-6-(1-(1-methylpiperidin-4-yl)-1H-pyrazol-4-yl)quinazolin-4-yl)benzo[d]thiazol-6-amine], the IC50 (at EGFR (d746-750); at EGFR L858R; in assay [1]) was at most 10 nM each time.
On to `COc1nn(C)cc1-c1cc(O[C@H]2COC[C@@H]2O)c2c(Nc3ccc4ncsc4c3)ncnc2c1` (single isomer, unassigned) [Example A48], for which the 50% inhibitory concentration (IC50) (at EGFR (d746-750); at EGFR L858R; in assay [1]) was at most 10 nM each time.
On to `Cn1cc(-c2cc(OCC(=O)N3CCOCC3)c3c(Nc4ccc5ncsc5c4F)ncnc3c2)cn1` [Example 276, 2-((4-((7-fluorobenzo[d]thiazol-6-yl)amino)-7-(1-methyl-1H-pyrazol-4-yl)quinazolin-5-yl)oxy)-1-morpholinoethan-1-one], for which the 50% inhibitory concentration (IC50) (on EGFR (d746-750); on EGFR L858R; in assay [1]) was at most 10 nM each time.
Consider `C[C@@H](Oc1cc(-c2cnn(C)c2)cc2ncnc(Nc3ccc4ncsc4c3F)c12)C1CN(C)C1` (single isomer, unassigned) [Example 388], for which the half-inhibitory concentration (IC50) was 10.1 to 50 nM at EGFR (d746-750), above 50.1 nM at EGFR L858R and above 50.1 nM in assay [1].
As to `COc1nn(C)cc1-c1cc(OC2CCN(CC(F)F)CC2)c2c(Nc3ccc4ncsc4c3)ncnc2c1` [Example 386, N-(5-((1-(2,2-difluoroethyl)piperidin-4-yl)oxy)-7-(3-methoxy-1-methyl-1H-pyrazol-4-yl)quinazolin-4-yl)benzo[d]thiazol-6-amine], the IC50 (on EGFR (d746-750); on EGFR L858R; in assay [1]) was at most 10 nM each time.
For the molecule `Cn1cc(-c2cc(O[C@H]3CCOC[C@@H]3F)c3c(Nc4ccc5ncsc5c4)ncnc3c2)cn1` (single isomer, unassigned) [Example 45], the half-maximal inhibitory concentration (IC50) on EGFR (d746-750) is at most 10 nM; on EGFR L858R it was at most 10 nM; in assay [1] it was 10.1 to 50 nM.
In the case of `C[C@@H]1CN(c2cc(O[C@@H](C)CN(C)C)c3c(Nc4ccc5ncsc5c4)ncnc3c2)C[C@H](C)O1` (single isomer, unassigned) [Example 149], the half-maximal inhibitory concentration (IC50) at EGFR (d746-750) was 10.1 to 50 nM; at EGFR L858R, above 50.1 nM; in assay [1], 10.1 to 50 nM.
For the molecule `C[C@@H]1OC[C@@H]1Oc1cc(-c2cnn(C)c2)cc2ncnc(Nc3ccc4ncsc4c3)c12` (racemic) [Example 9, cis-N-(7-(1-methyl-1H-pyrazol-4-yl)-5-((-2-methyloxetan-3-yl)oxy)quinazolin-4-yl)benzo[d]thiazol-6-amine], the IC50 on EGFR (d746-750) is at most 10 nM; on EGFR L858R, at most 10 nM; in assay [1] it was 10.1 to 50 nM.
In the case of `C[C@H](Oc1cc(-c2cnn(C)c2)cc2ncnc(Nc3ccc4ncsc4c3F)c12)C1COC1` (single isomer, unassigned) [Example 71, (S)-7-fluoro-N-(7-(1-methyl-1H-pyrazol-4-yl)-5-(1-(oxetan-3-yl)ethoxy)quinazolin-4-yl)benzo[d]thiazol-6-amine or (R)-7-fluoro-N-(7-(1-methyl-1H-pyrazol-4-yl)-5-(1-(oxetan-3-yl)ethoxy)quinazolin-4-yl)benzo[d]thiazol-6-amine], the IC50 (at EGFR (d746-750); on EGFR L858R; in assay [1]) was at most 10 nM each time.
For the molecule `COc1nn(C)cc1-c1cc(O[C@@H](C)C(=O)N(C)C)c2c(Nc3ccc4ncsc4c3F)ncnc2c1` (single isomer, unassigned) [Example 287], the IC50 (at EGFR (d746-750); on EGFR L858R; in assay [1]) was at most 10 nM throughout.
Take `Cn1cc(-c2cc(O[C@@H]3CCOC[C@@H]3F)c3c(Nc4ccc5ncsc5c4)ncnc3c2)cn1` (single isomer, unassigned) [Example 43]: the half-maximal inhibitory concentration (IC50) is at most 10 nM on EGFR (d746-750), at most 10 nM at EGFR L858R and 10.1 to 50 nM in assay [1].
In the case of `Cn1cc(-c2cc(OC3CCCOC3)c3c(Nc4ccc5ncsc5c4)ncnc3c2)cn1` (single isomer, unassigned) [Example 6], the IC50 (on EGFR (d746-750); at EGFR L858R; in assay [1]) was at most 10 nM in each case.
Consider `CN1CCC[C@@H](Oc2cc(-c3cnn(C)c3)cc3ncnc(Nc4ccc5ncsc5c4)c23)C1` (single isomer, unassigned) [Example 47], for which the IC50 at EGFR (d746-750) is at most 10 nM; at EGFR L858R it was at most 10 nM; in assay [1] it was 10.1 to 50 nM.
`C[C@H]1CN(C)CCN1C(=O)Nc1cc2c(Nc3ccc4ncsc4c3)ncnc2cc1-c1ccn(C)n1` [Example 399, (S)-N-(4-(benzo[d]thiazol-6-ylamino)-7-(1-methyl-1H-pyrazol-3-yl)quinazolin-6-yl)-2,4-dimethylpiperazine-1-carboxamide]: the half-maximal inhibitory concentration (IC50) (at EGFR (d746-750); at EGFR L858R; in assay [1]) was at most 10 nM throughout.
`C[C@H](Oc1cc(-c2cnn(C)c2)cc2ncnc(Nc3ccc4ncsc4c3F)c12)C(=O)N1CCOCC1` (single isomer, unassigned) [Example 282]: the 50% inhibitory concentration (IC50) (at EGFR (d746-750); on EGFR L858R; in assay [1]) was at most 10 nM throughout.
As to `CC(C)N1CCN(c2cc(OC3CCOCC3)c3c(Nc4ccc5ncsc5c4)ncnc3c2)C1=O` [Example 194, 1-(4-(benzo[d]thiazol-6-ylamino)-5-((tetrahydro-2H-pyran-4-yl)oxy)quinazolin-7-yl)-3-isopropylimidazolidin-2-one], the concentration for half-maximal inhibition (IC50) (at EGFR (d746-750); on EGFR L858R; in assay [1]) was at most 10 nM in each case.
`C[C@@H]1CNCCN1c1cc(O[C@H](C)C2COC2)c2c(Nc3ccc4ncsc4c3F)ncnc2c1` (single isomer, unassigned) [Example 104]: the IC50 on EGFR (d746-750) is at most 10 nM; on EGFR L858R it was at most 10 nM; in assay [1], 10.1 to 50 nM.
Take `C[C@H](CO)Oc1cc(-c2cnn(C)c2)cc2ncnc(Nc3ccc4ncsc4c3F)c12` (single isomer, unassigned) [Example 289]: the half-maximal inhibitory concentration (IC50) (at EGFR (d746-750); at EGFR L858R; in assay [1]) was at most 10 nM throughout.
On to `COc1cn(C)nc1-c1cc(O[C@H]2CCCN(C)C2)c2c(Nc3ccc4ncsc4c3F)ncnc2c1` [Example 246, (S)-7-fluoro-N-(7-(4-methoxy-1-methyl-1H-pyrazol-3-yl)-5-((1-methylpiperidin-3-yl)oxy)quinazolin-4-yl)benzo[d]thiazol-6-amine], for which the 50% inhibitory concentration (IC50) was at most 10 nM on EGFR (d746-750), at most 10 nM at EGFR L858R and 10.1 to 50 nM in assay [1].
